Source: US20240239790A1, “7-Morpholino-1,6-Naphthyridin-5-yl Derivatives and Pharmaceutical Compositions Thereof Useful as DNA-PK Inhibitor” (adMare Therapeutics Society, priority 2021, published 2024)
Like-named read-outs stand apart in the source and are kept apart here.

Assays:
[1] = target: T1, DNA-PK phosphorylation at Serine 2056 (Homo sapiens, UniProt P78527); assay: Cellular Assay for Inhibition of DNA-PK Phosphorylation at Serine 2056 in FaDu cells (sandwich ELISA, neocarzinostatin); format: cell-based; conditions: pSer2056 DNA-PK, Table 3
T1 construct: FaDu cells were purchased from ATCC; host or cells: FaDu
Summary of the method: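 FaDu cells pre-treated with compound (0.3% DMSO) for 1 h, then neocarzinostatin 1 μg/mL final added for 2 h to induce DSBs. Protein-normalised lysates read by sandwich ELISA for total and pSer2056 DNA-PK; % inhibition normalised between DMSO and NCS controls, IC50 from variable-slope log(inhibitor) fit.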

[2] = system: pH2AX induction in HCT116 ATM-/- multicellular tumour spheroids; assay: Prodrug Radiation Sensitization in Multicellular Tumour Spheroids, inhibition of pH2AX induction following radiation; format: cell-based; conditions: Homo sapiens, HCT-116, 20 Gy
Method: Prodrug compounds were assayed to determine their potency in 3D multicellular spheroids in media maintained under 20% vs 5% oxygen. Multicellular tumour spheroids were grown to approximately 0.5 mm in diameter and irradiated with 20 Gy in combination with inhibitor test compounds to determine their potency using HCT 116 and FaDu cell lines. Experiments were carried out in 96 well plates containing 0.7 mls of MEM media containing 10% FBS and 10 mM glucose under 5% CO2 at 37° C. Following dilution of compounds 1:1000 from DMSO stocks, compounds were serially diluted from 10 μM down to 3.5 nM and 5-10 spheroids added. 96 well plates were constantly stirred to avoid spheroids settling during the course of the experiment. Endpoints were pDNA-PK (ser 2056) or pH2AX (ser 139) status in spheroid cryosections taken 1 or 2 hours following radiation and fixed immediately in formalin. Using tumour cell lines deficient in ATM improved the assay signal to noise and gH2AX readout. Using this assay prodrug activity could be compared in the more oxygenated outer spheroid layers versus less oxygenated hypoxic central cell layers.

[3] = system: FaDu cell line; assay: Prodrug Activation in Hypoxic Stirred Tumour Cell Suspensions; conditions: 10 μM, 4 hours
Method: Prodrug compounds were assayed to determine their stability and rate of activation in stirred cell suspensions under 0.2 vs 5% oxygen. Compounds were diluted 1:1000 from DMSO stocks to 10 μM final concentration in tumour cell suspensions (1% by cell volume) in MEM media containing 10% FBS, 10 mM glucose & 3.7 g/L sodium bicarbonate. Cell lines assayed included A253, A549, Detroit562, FaDu, HCT116, HEP G2, HT29, SCC25, SCC9, SiHa & TC32. Compounds and cells were then incubated for 4 hours under constant mixing at 37° C. under 5% CO2 and either 0.2 or 5% O2. Following the incubation period cellular activation of the compounds was assayed via MeOH extraction and HPLC quantification.

[4] = 5% O2, inner layers, read-out: Prodrug 5% O2 Inner layers EC50
[5] = 5% O2, outer layers, read-out: Prodrug 5% O2 Outer layers EC50
[6] = 20% O2, outer layers, read-out: Prodrug 20% O2 Outer layers EC50

IC50 [1]	Fraction of prodrug converted to active form, Hypoxic 0.2% O2 [3]	Fraction of prodrug converted to active form, Oxic 5% O2 [3]	SMILES	EC50 [2, 4]	EC50 [2, 5]	EC50 [2, 6]
10000 to 30000 nM	A (A is 0.15 to 1)	D (D is 0 to 0.02)	CC(c1cnc([N+](=O)[O-])n1C1CC1)N(c1cnc2cc(N3CCOCC3)nc(OC3CCC(Nc4ccn5nccc5n4)CC3)c2c1)S(C)(=O)=O (stereo not drawn) [LFA2051, N-[1-(3-cyclopropyl-2-nitro-imidazol-4-yl)ethyl]-N-[7-morpholino-5-[4-(pyrazolo[1,5-a]pyrimidin-5-ylamino)cyclohexoxy]-1,6-naphthyridin-3-yl]methanesulfonamide]	10 to 500 nM	1000 to 10000 nM	1000 to 10000 nM
1000 to 10000 nM	B (B is 0.05 to 0.15)	C (C is 0.02 to 0.05)	CC(c1cnn(C)c1[N+](=O)[O-])N(c1cnc2cc(N3CCOCC3)nc(O[C@H]3CC[C@@H](Nc4ncc(C#N)cn4)CC3)c2c1)S(C)(=O)=O (stereo partly drawn) [LFA2052, N-[5-[4-[(5-cyanopyrimidin-2-yl)amino]cyclohexoxy]-7-morpholino-1,6-naphthyridin-3-yl]-N-[1-(1-methyl-5-nitro-pyrazol-4-yl)ethyl]methanesulfonamide]	10 to 500 nM	500 to 1000 nM	1000 to 10000 nM
10000 to 30000 nM	B (B is 0.05 to 0.15)	D (D is 0 to 0.02)	CC(c1cnc([N+](=O)[O-])n1C)N(c1cnc2cc(N3CCOCC3)nc(O[C@H]3CC[C@@H](Nc4ncc(CN5CCOCC5)cn4)CC3)c2c1)S(C)(=O)=O (stereo partly drawn) [LFA2053, N-[1-(3-methyl-2-nitro-imidazol-4-yl)ethyl]-N-[7-morpholino-5-[4-[[5-(morpholinomethyl)pyrimidin-2-yl]amino]cyclohexoxy]-1,6-naphthyridin-3-yl]methanesulfonamide]	10 to 500 nM	500 to 1000 nM	1000 to 10000 nM
10000 to 30000 nM	B (B is 0.05 to 0.15)	D (D is 0 to 0.02)	CC(c1cnc([N+](=O)[O-])n1C)N(c1cnc2cc(N3CCOCC3)nc(O[C@H]3CC[C@@H](Nc4ncc(OCCN5CCOCC5)cn4)CC3)c2c1)S(C)(=O)=O (stereo partly drawn) [LFA2054, N-[1-(3-methyl-2-nitro-imidazol-4-yl)ethyl]-N-[7-morpholino-5-[4-[[5-(2-morpholinoethoxy)pyrimidin-2-yl]amino]cyclohexoxy]-1,6-naphthyridin-3-yl]methanesulfonamide]	10 to 500 nM	500 to 1000 nM	10000 to 100000 nM
1000 to 10000 nM	A (A is 0.15 to 1)	D (D is 0 to 0.02)	CC(c1cnc([N+](=O)[O-])n1C1CC1)N(c1cnc2cc(N3CCOCC3)nc(O[C@H]3CC[C@@H](Nc4ncccn4)CC3)c2c1)S(C)(=O)=O (stereo partly drawn) [LFA2055, N-[1-(3-cyclopropyl-2-nitro-imidazol-4-yl)ethyl]-N-[7-morpholino-5-[4-(pyrimidin-2-ylamino)cyclohexoxy]-1,6-naphthyridin-3-yl]methanesulfonamide]	10 to 500 nM	10 to 500 nM	1000 to 10000 nM
1000 to 10000 nM	C (C is 0.02 to 0.05)	C (C is 0.02 to 0.05)	CC(c1cnn(C)c1[N+](=O)[O-])N(c1cnc2cc(N3CCOCC3)nc(O[C@H]3CC[C@@H](Nc4ncccn4)CC3)c2c1)S(C)(=O)=O (stereo partly drawn) [LFA2056, N-[1-(1-methyl-5-nitro-pyrazol-4-yl)ethyl]-N-[7-morpholino-5-[4-(pyrimidin-2-ylamino)cyclohexoxy]-1,6-naphthyridin-3-yl]methanesulfonamide]	10 to 500 nM	10 to 500 nM	1000 to 10000 nM
1000 to 10000 nM	A (A is 0.15 to 1)	B (B is 0.05 to 0.15)	Cn1ncc(CN(c2cnc3cc(N4CCOCC4)nc(O[C@H]4CC[C@@H](Nc5ncccn5)CC4)c3c2)S(C)(=O)=O)c1[N+](=O)[O-] [LFA2057, N-[(1-methyl-5-nitro-pyrazol-4-yl)methyl]-N-[7-morpholino-5-[4-(pyrimidin-2-ylamino)cyclohexoxy]-1,6-naphthyridin-3-yl]methanesulfonamide]	10 to 500 nM	10 to 500 nM	1000 to 10000 nM
1000 to 10000 nM	B (B is 0.05 to 0.15)	C (C is 0.02 to 0.05)	CS(=O)(=O)N(Cc1cnc([N+](=O)[O-])n1C1CC1)c1cnc2cc(N3CCOCC3)nc(O[C@H]3CC[C@@H](Nc4ncccn4)CC3)c2c1 [LFA2058, N-[(3-cyclopropyl-2-nitro-imidazol-4-yl)methyl]-N-[7-morpholino-5-[4-(pyrimidin-2-ylamino)cyclohexoxy]-1,6-naphthyridin-3-yl]methanesulfonamide]	10 to 500 nM	10 to 500 nM	1000 to 10000 nM
1000 to 10000 nM	B (B is 0.05 to 0.15)	D (D is 0 to 0.02)	CN1CCN(CCOc2cnc(N[C@H]3CC[C@@H](Oc4nc(N5CCOCC5)cc5ncc(N(Cc6cnc([N+](=O)[O-])n6C)S(C)(=O)=O)cc45)CC3)nc2)CC1 [LFA2059, N-[(3-methyl-2-nitro-imidazol-4-yl)methyl]-N-[5-[4-[[5-[2-(4-methylpiperazin-1-yl)ethoxy]pyrimidin-2-yl]amino]cyclohexoxy]-7-morpholino-1,6-naphthyridin-3-yl]methanesulfonamide]	1000 to 10000 nM	1000 to 10000 nM	1000 to 10000 nM
10000 to 30000 nM	A (A is 0.15 to 1)	D (D is 0 to 0.02)	CC(c1cnc([N+](=O)[O-])n1C)N(c1cnc2cc(N3CCOCC3)nc(O[C@H]3CC[C@@H](Nc4ncc(OCCN5CCN(C)CC5)cn4)CC3)c2c1)S(C)(=O)=O (stereo partly drawn) [LFA2060, N-[1-(3-methyl-2-nitro-imidazol-4-yl)ethyl]-N-[5-[4-[[5-[2-(4-methylpiperazin-1-yl)ethoxy]pyrimidin-2-yl]amino]cyclohexoxy]-7-morpholino-1,6-naphthyridin-3-yl]methanesulfonamide]	500 to 1000 nM	1000 to 10000 nM	10000 to 100000 nM
10000 to 30000 nM	B (B is 0.05 to 0.15)	D (D is 0 to 0.02)	CC(c1cnc([N+](=O)[O-])n1C)N(c1cnc2cc(N3CCOCC3)nc(O[C@H]3CC[C@@H](Nc4ncc(OCCN(C)C)cn4)CC3)c2c1)S(C)(=O)=O (stereo partly drawn) [LFA2061, N-[5-[4-[[5-[2-(dimethylamino)ethoxy]pyrimidin-2-yl]amino]cyclohexoxy]-7-morpholino-1,6-naphthyridin-3-yl]-N-[1-(3-methyl-2-nitro-imidazol-4-yl)ethyl]methanesulfonamide]	500 to 1000 nM	1000 to 10000 nM	10000 to 100000 nM
